Measured values published in patent publication US11883526B2 (priority 2019, dated 2024).
Read-outs that look alike come from different tables or passages of the source.

Test system: subjects with MDD at imminent risk for suicide
Details: 84 mg
[1] = TEAE, double-blind phase, N = 35
[2] = adverse event, follow up phase, N = 27
[3] = overall summary, double-blind phase, N = 35
[4] = serious TEAE, double-blind phase, N = 35
[5] = serious adverse event, follow up phase, N = 27

Structure (SMILES): CN[C@]1(c2ccccc2Cl)CCCCC1=O [esketamine, (S)-2-(2-chlorophenyl)-2-(methylamino)cyclohexanone]
- Vertigo: no. of subjects [1]: 4
- Vision blurred: % of subjects [1]: (8.6%)
- Vision blurred: no. of subjects [1]: 3
- Vomiting: % of subjects [1]: (20.0%)
- Vomiting: no. of subjects [1]: 7
- Weight increased: % of subjects [1]: (5.7%)
- Weight increased: no. of subjects [1]: 2
- Abdominal pain: % of subjects [2]: (3.7%)
- Abdominal pain: no. of subjects [2]: 1
- Abdominal tenderness: % of subjects [2]: (3.7%)
- Abdominal tenderness: no. of subjects [2]: 1
- Aphthous ulcer: no. of subjects [2]: 0
- Back pain: % of subjects [2]: (3.7%)
- Back pain: no. of subjects [2]: 1
- Bronchitis: no. of subjects [2]: 0
- Cellulitis: no. of subjects [2]: 0
- Cogwheel rigidity: % of subjects [2]: (3.7%)
- Cogwheel rigidity: no. of subjects [2]: 1
- Contusion: % of subjects [2]: (3.7%)
- Contusion: no. of subjects [2]: 1
- Depressed mood: no. of subjects [2]: 0
- Depression: % of subjects [2]: (3.7%)
- Depression: no. of subjects [2]: 1
- Diarrhea: % of subjects [2]: (3.7%)
- Diarrhea: no. of subjects [2]: 1
- Dizziness: % of subjects [2]: (3.7%)
- Dizziness: no. of subjects [2]: 1
- Drug hypersensitivity: no. of subjects [2]: 0
- Dry mouth: % of subjects [2]: (7.4%)
- Dry mouth: no. of subjects [2]: 2
- Dysgeusia: % of subjects [2]: (3.7%)
- Dysgeusia: no. of subjects [2]: 1
- Ear and labyrinth disorders: no. of subjects [2]: 0
- Ear infection: % of subjects [2]: (3.7%)
- Ear infection: no. of subjects [2]: 1
- Epistaxis: % of subjects [2]: (3.7%)
- Epistaxis: no. of subjects [2]: 1
- Flank pain: % of subjects [2]: (3.7%)
- Flank pain: no. of subjects [2]: 1
- Folliculitis: no. of subjects [2]: 0
- Gastrointestinal disorders: % of subjects [2]: (22.2%)
- Gastrointestinal disorders: no. of subjects [2]: 6
- Headache: % of subjects [2]: (7.4%)
- Headache: no. of subjects [2]: 2
- Immune system disorders: no. of subjects [2]: 0
- Infections and infestations: % of subjects [2]: (11.1%)
- Infections and infestations: no. of subjects [2]: 3
- Influenza: no. of subjects [2]: 0
- Injury, poisoning and procedural complications: % of subjects [2]: (7.4%)
- Injury, poisoning and procedural complications: no. of subjects [2]: 2
- Insomnia: % of subjects [2]: (11.1%)
- Insomnia: no. of subjects [2]: 3
- Intentional self-injury: % of subjects [2]: (3.7%)
- Intentional self-injury: no. of subjects [2]: 1
- Loss of consciousness: % of subjects [2]: (3.7%)
- Loss of consciousness: no. of subjects [2]: 1
- Meniere's disease: no. of subjects [2]: 0
- Metabolism and nutrition disorders: no. of subjects [2]: 0
- Migraine: % of subjects [2]: (3.7%)
- Migraine: no. of subjects [2]: 1
- Musculoskeletal and connective tissue disorders: % of subjects [2]: (7.4%)
- Musculoskeletal and connective tissue disorders: no. of subjects [2]: 2
- Musculoskeletal chest pain: % of subjects [2]: (3.7%)
- Musculoskeletal chest pain: no. of subjects [2]: 1
- Musculoskeletal pain: % of subjects [2]: (3.7%)
- Musculoskeletal pain: no. of subjects [2]: 1
- Nasal congestion: % of subjects [2]: (3.7%)
- Nasal congestion: no. of subjects [2]: 1
- Nasopharyngitis: % of subjects [2]: (3.7%)
- Nasopharyngitis: no. of subjects [2]: 1
- Nausea: no. of subjects [2]: 0
- Neck pain: % of subjects [2]: (3.7%)
- Neck pain: no. of subjects [2]: 1
- Nervous system disorders: % of subjects [2]: (22.2%)
- Nervous system disorders: no. of subjects [2]: 6
- Night sweats: % of subjects [2]: (3.7%)
- Night sweats: no. of subjects [2]: 1
- Panic reaction: no. of subjects [2]: 0
- Pelvic pain: % of subjects [2]: (3.7%)
- Pelvic pain: no. of subjects [2]: 1
- Pharyngitis: % of subjects [2]: (7.4%)
- Pharyngitis: no. of subjects [2]: 2
- Polydipsia: no. of subjects [2]: 0
- Procedural pain: no. of subjects [2]: 0
- Psychiatric disorders: % of subjects [2]: (18.5%)
- Psychiatric disorders: no. of subjects [2]: 5
- Rash: no. of subjects [2]: 0
- Renal and urinary disorders: no. of subjects [2]: 0
- Renal failure: no. of subjects [2]: 0
- Reproductive system and breast disorders: % of subjects [2]: (3.7%)
- Reproductive system and breast disorders: no. of subjects [2]: 1
- Respiratory, thoracic and mediastinal disorders: % of subjects [2]: (7.4%)
- Respiratory, thoracic and mediastinal disorders: no. of subjects [2]: 2
- Restlessness: % of subjects [2]: (3.7%)
- Restlessness: no. of subjects [2]: 1
- Road traffic accident: % of subjects [2]: (3.7%)
- Road traffic accident: no. of subjects [2]: 1
- Sedation: % of subjects [2]: (3.7%)
- Sedation: no. of subjects [2]: 1
- Self-injurious ideation: no. of subjects [2]: 0
- Sexual dysfunction: no. of subjects [2]: 0
- Skin and subcutaneous tissue disorders: % of subjects [2]: (3.7%)
- Skin and subcutaneous tissue disorders: no. of subjects [2]: 1
- Somnolence: no. of subjects [2]: 0
- Suicidal ideation: % of subjects [2]: (3.7%)
- Suicidal ideation: no. of subjects [2]: 1
- Suicide attempt: no. of subjects [2]: 0
- Tooth impacted: no. of subjects [2]: 0
- Toothache: no. of subjects [2]: 0
- Total no. subjects with adverse events: % of subjects [2]: (48.1%)
- Total no. subjects with adverse events: no. of subjects [2]: 13
- Tremor: % of subjects [2]: (7.4%)
- Tremor: no. of subjects [2]: 2
- Upper respiratory tract infection: % of subjects [2]: (3.7%)
- Upper respiratory tract infection: no. of subjects [2]: 1
- Viral upper respiratory tract infection: no. of subjects [2]: 0
- Vomiting: % of subjects [2]: (3.7%)
- Vomiting: no. of subjects [2]: 1
- Vulvovaginal mycotic infection: % of subjects [2]: (3.7%)
- Vulvovaginal mycotic infection: no. of subjects [2]: 1
- 1 or more serious TEAE: % of subjects [3]: 11.4%
- 1 or more serious TEAE: no. of subjects [3]: 4
- Possibly related TEAE: % of subjects [3]: 82.9%
- Possibly related TEAE: no. of subjects [3]: 29
- TEAE leading to death: no. of subjects [3]: 0
- TEAE leading to drug withdrawn: % of subjects [3]: 14.3%
- TEAE leading to drug withdrawn: no. of subjects [3]: 5
- TEAE: % of subjects [3]: 94.3%
- TEAE: no. of subjects [3]: 33
- Agitation: % of subjects [4]: 2.9%
- Agitation: no. of subjects [4]: 1
- Depressive symptom: % of subjects [4]: 2.9%
- Depressive symptom: no. of subjects [4]: 1
- Psychiatric disorders: % of subjects [4]: 11.4%
- Psychiatric disorders: no. of subjects [4]: 4
- Suicidal ideation: % of subjects [4]: 5.7%
- Suicidal ideation: no. of subjects [4]: 2
- Total no. subjects with a serious TEAE: % of subjects [4]: 11.4%
- Total no. subjects with a serious TEAE: no. of subjects [4]: 4
- Cellulitis: no. of subjects [5]: 0
- Infections and infestations: no. of subjects [5]: 0
- Psychiatric disorders: % of subjects [5]: 3.7%
- Psychiatric disorders: no. of subjects [5]: 1
- Suicidal ideation: % of subjects [5]: 3.7%
- Suicidal ideation: no. of subjects [5]: 1
- Suicide attempt: no. of subjects [5]: 0
- Total no. subjects with a serious adverse event: % of subjects [5]: 3.7%
- Total no. subjects with a serious adverse event: no. of subjects [5]: 1
